{"source": "patent US8206751B2", "about": "“Class of therapeutics that enhance small molecule diffusion” (Diffusion Pharmaceuticals LLC, priority 2007, dated 2012)", "key": {"[1]": {"assay": "Oxygen transport across the skin, transcutaneous oxygen monitor (TCOM)", "assay_type": "in vivo", "conditions": "normal rat switched to 100% oxygen at time zero, intravenous injection in the femoral vein, versus saline control", "procedure": "Diffusion enhancing compounds such as kosmotropes increase the oxygen transport in vivo. In the subject experiment, the oxygen diffusing through the skin of a normal, non-diseased rat was measured using a transcutaneous oxygen monitor (TCOM). In the subject study, the rats breathed air and then were switched to breathing 100% oxygen at a time equal to zero. Also at time zero, the rats were injected (intravenously in the femoral vein) with either saline (control), trehalose, glycine betaine, or TSC."}, "[2]": {"conditions": "TSC concentrations from 1 μmole/liter to around 200 μmole/liter; cited from earlier work"}, "[3]": {"conditions": "rats breathing 100% oxygen; cited from earlier work"}, "[4]": {"assay": "Glucose diffusion through aqueous kosmotrope solutions, microinterferometric method", "assay_type": "physicochemical", "conditions": "about 10 μM kosmotrope in water, 25° C., glucose 0.9 molar", "procedure": "The diffusion of glucose through aqueous solutions of the above-mentioned kosmotropes was measured using a microinterferometric method, Secor, R. M., AIChE Journal, 11: 452-456, 1965.\nIn this method, a wedge is formed by two microscope slides that have a partial coating of a metal such as aluminum on the inner sides of the wedge. The wedge is placed on a microscope stage and illuminated from below using some source of monochromatic light, such as a helium-neon laser. As the light passes through the wedge, the partial coating of aluminum allows some light to be transmitted, while some is reflected. This creates constructive and destructive lines known as interference fringes. The interference fringes can then be magnified by a microscope and recorded with a camera.\nMolecules of glucose will diffuse along a concentration gradient of glucose. Since the refractive index of the solution is related to the concentration of the glucose, the fringes at a given point will change with time. […]\nSolutions of three kosmotropes (proline, betaine and trehalose) in water were made, so that the solutions contained about 10 μM of each of the kosmotropes. Using the trehalose solution as an example, the diffusivity of glucose through each of these solutions was then measured in the following way.\nThe trehalose solution was divided into two parts. […] A camera recorded the resulting fringe pattern. […]"}}}
{"smiles": "CC(/C=C/C=C(\\C)C(=O)[O-])=C\\C=C\\C=C(C)\\C=C\\C=C(/C)C(=O)[O-].[Na+].[Na+]", "note": "[TSC, trans sodium crocetinate]", "values": [{"measurement": "oxygen transport across the skin (TCOM readings)", "setting": "[1]", "value": "increased oxygen transport across the skin"}, {"measurement": "increase in the diffusivity of glucose through water", "setting": "[2]", "value": "around 30%"}, {"measurement": "brain oxygen level", "setting": "[3]", "value": "further increased the brain oxygen level"}]}
{"smiles": "C[N+](C)(C)CC(=O)O", "note": "[glycine betaine, Glycine betaine]", "values": [{"measurement": "oxygen transport across the skin (TCOM readings)", "setting": "[1]", "value": "increased oxygen transport across the skin"}]}
{"smiles": "OC[C@H]1O[C@H](O[C@H]2O[C@H](CO)[C@@H](O)[C@H](O)[C@H]2O)[C@H](O)[C@@H](O)[C@@H]1O", "note": "[trehalose, Trehalose]", "values": [{"measurement": "diffusivity of glucose through the solution compared with plain water", "setting": "[4]", "value": "greater than the value of glucose through plain water"}, {"measurement": "oxygen transport across the skin (TCOM readings)", "setting": "[1]", "value": "increased oxygen transport across the skin"}]}
